Assays:
ORYSAT (Rice, Tebonnet) [1] = assay: Postemergence herbicidal evaluation; format: in vivo, Oryza sativa, (L.) Tebonnet; conditions: postemergence
How it was run: (§1)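 Two-week seedlings sprayed postemergence at 40 psi; formulation: 1:1 acetone/water, 0.5% TWEEN 20; application ≈0.0156–0.500 kg/ha. Greenhouse grow-out, then 0–9 visual scoring at 4–5 weeks.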

[2] = system: GLXMAW (Soybean, Williams); assay: Preemergence herbicidal evaluation; format: in vivo, Glycine max, (L.) Merr. cv Williams; conditions: rated 4-5 weeks after treatment
How it was run: (§2)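 Scores (0–9) reflect visual comparison with control plants for stand, vigor, malformation, size and chlorosis. Compound was applied to the soil after sowing, before emergence, as an aqueous acetone spray (about 0.0156–0.500 kg/ha), and cups were kept in a greenhouse for 4–5 weeks.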

CASOB (Sicklepod) = assay: Preemergence herbicidal evaluation; format: in vivo, Cassia obtusifolia; conditions: rated 4-5 weeks after treatment
How it was run: as §2

ORYSAT (Rice, Tebonnet) [3] = assay: Preemergence herbicidal evaluation; format: in vivo, Oryza sativa, (L.) Tebonnet; conditions: rated 4-5 weeks after treatment
How it was run: as §2

[4] = system: ECHORC (Watergrass (Calif.)); assay: Preemergence weed control under flooded paddy conditions; format: in vivo, Echinochloa oryzoides; conditions: rated 3-4 weeks after treatment
How it was run: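 Silt loam, seeds in top 0.5 cm; flood held 1.5-3 cm; test cpd as acetone/water 50/50 into flood water, ~0.0313-0.500 kg/ha a.i.; greenhouse 3-4 wk; visual 0-9 score vs control.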

[5] = system: SAGPY (Arrowhead (Pygmaea)); assay: as above; format: in vivo, Sagittaria pygmaea; conditions: rated 3-4 weeks after treatment
How it was run: (§3)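 Greenhouse paddy assay. Acetone/water (50/50 v/v) solutions dosed into flood water, equivalent to about 0.0313 to 0.500 kg/ha active ingredient, over seeds planted 0.5 cm deep in silt loam. Score: 0-9 visual, based on stand, vigor, malformation, size and chlorosis, 3 to 4 weeks after treatment.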

ZEAMX (Corn, Field) = assay: Postemergence herbicidal evaluation; format: in vivo, Zea mays; conditions: postemergence
How it was run: as §1

GALAP (Galium) = assay: Preemergence herbicidal evaluation; format: in vivo, Galium aparine; conditions: rated 4-5 weeks after treatment
How it was run: as §2

AMBEL (Ragweed, Common) [6] = assay: Postemergence herbicidal evaluation; format: in vivo, Ambrosia artemisifolia; conditions: postemergence
How it was run: as §1

[7] = system: TRZAWR (Wheat, Winter, cv Riband); assay: Preemergence herbicidal evaluation; format: in vivo, Triticum aestivum; conditions: rated 4-5 weeks after treatment
How it was run: as §2

ABUTH (Velvetleaf) = assay: Postemergence herbicidal evaluation; format: in vivo, Abutilon theophrasti; conditions: postemergence
How it was run: as §1

CYPSE (Flatsedge) = assay: Preemergence weed control under flooded paddy conditions; format: in vivo, Cyperus serotinus; conditions: rated 3-4 weeks after treatment
How it was run: as §3

[8] = system: IPOHE (Morningglory, Ivyleaf); assay: Preemergence herbicidal evaluation; format: in vivo, Ipomoea hederacea; conditions: rated 4-5 weeks after treatment
How it was run: as §2

SETVI (Foxtail, Green) = assay: Preemergence herbicidal evaluation; format: in vivo, Setaria viridis; conditions: rated 4-5 weeks after treatment
How it was run: as §2

[9] = system: CHEAL (Lambsquarters, Common); assay: Preemergence herbicidal evaluation; format: in vivo, Chenopodium album; conditions: rated 4-5 weeks after treatment
How it was run: as §2

AMBEL (Ragweed, Common) [10] = assay: Preemergence herbicidal evaluation; format: in vivo, Ambrosia artemisifolia; conditions: rated 4-5 weeks after treatment
How it was run: as §2

COC(=O)C(C)OC(=O)CN1C(=O)CSC1=Nc1cc(-n2c(=O)cc(C(F)(F)F)n(C)c2=O)c(F)cc1Cl (stereo not drawn) [Compound 116, 2-{{2-Chloro-5-[3,6-dihydro-3-methyl-2,6-dioxo-4-(trifluoromethyl)-1(2H)-pyrimidinyl]-4-fluorophenyl}imino}-4-oxo-3-thiazolidineacetic acid, ester with methyl lactate]
Herbicidal rating ORYSAT (ORYSAT (Rice, Tebonnet) [1]; rate 0.0158 kg/ha): 1.5 | Herbicidal rating ORYSAT (ORYSAT (Rice, Tebonnet) [1]; rate 0.0315 kg/ha): 2.0 | Herbicidal rating ORYSAT (ORYSAT (Rice, Tebonnet) [1]; rate 0.0630 kg/ha): 2.0 | Preemergence herbicidal rating GLXMAW ([2]; rate 0.0156 kg/ha): 1.0 | Preemergence herbicidal rating GLXMAW ([2]; rate 0.0313 kg/ha): 1.0 | Preemergence herbicidal rating GLXMAW ([2]; rate 0.0625 kg/ha): 0.0 | Preemergence herbicidal rating GLXMAW ([2]; rate 0.1250 kg/ha): 1.0 | Preemergence herbicidal rating GLXMAW ([2]; rate 0.2500 kg/ha): 2.0 | Preemergence herbicidal rating CASOB (CASOB (Sicklepod); rate 0.0156 kg/ha): 0.0 | Preemergence herbicidal rating CASOB (CASOB (Sicklepod); rate 0.0313 kg/ha): 0.0 | Preemergence herbicidal rating CASOB (CASOB (Sicklepod); rate 0.0625 kg/ha): 0.0 | Preemergence herbicidal rating CASOB (CASOB (Sicklepod); rate 0.1250 kg/ha): 0.0 | Preemergence herbicidal rating CASOB (CASOB (Sicklepod); rate 0.2500 kg/ha): 2.0 | Preemergence herbicidal rating ORYSAT (ORYSAT (Rice, Tebonnet) [3]; rate 0.0156 kg/ha): 0.0 | Preemergence herbicidal rating ORYSAT (ORYSAT (Rice, Tebonnet) [3]; rate 0.0313 kg/ha): 0.0 | Preemergence herbicidal rating ORYSAT (ORYSAT (Rice, Tebonnet) [3]; rate 0.0625 kg/ha): 0.0 | Preemergence herbicidal rating ORYSAT (ORYSAT (Rice, Tebonnet) [3]; rate 0.1250 kg/ha): 0.0 | Preemergence herbicidal rating ORYSAT (ORYSAT (Rice, Tebonnet) [3]; rate 0.2500 kg/ha): 1.0 | herbicidal effect rating, ECHORC ([4]; 0.0313 kg/ha): 0.0 | herbicidal effect rating, ECHORC ([4]; 0.0625 kg/ha): 5.0 | ECHORC herbicidal effect rating ([4]; 0.1250 kg/ha): 6.0 | ECHORC herbicidal effect rating ([4]; 0.2500 kg/ha): 5.0 | herbicidal effect rating, SAGPY ([5]; 0.0313 kg/ha): 2.0 | herbicidal effect rating, SAGPY ([5]; 0.0625 kg/ha): 3.0 | SAGPY herbicidal effect rating ([5]; 0.1250 kg/ha): 5.0 | SAGPY herbicidal effect rating ([5]; 0.2500 kg/ha): 6.0 | Herbicidal rating ZEAMX (ZEAMX (Corn, Field); rate 0.0158 kg/ha): 4.5 | Herbicidal rating ZEAMX (ZEAMX (Corn, Field); rate 0.0315 kg/ha): 4.5 | Herbicidal rating ZEAMX (ZEAMX (Corn, Field); rate 0.0630 kg/ha): 4.5 | Preemergence herbicidal rating GALAP (GALAP (Galium); rate 0.0156 kg/ha): 0.0 | Preemergence herbicidal rating GALAP (GALAP (Galium); rate 0.0313 kg/ha): 0.0 | Preemergence herbicidal rating GALAP (GALAP (Galium); rate 0.0625 kg/ha): 0.0 | Preemergence herbicidal rating GALAP (GALAP (Galium); rate 0.1250 kg/ha): 0.0 | Preemergence herbicidal rating GALAP (GALAP (Galium); rate 0.2500 kg/ha): 7.0 | Herbicidal rating AMBEL (AMBEL (Ragweed, Common) [6]; rate 0.0158 kg/ha): 9.0 | Herbicidal rating AMBEL (AMBEL (Ragweed, Common) [6]; rate 0.0315 kg/ha): 9.0 | Herbicidal rating AMBEL (AMBEL (Ragweed, Common) [6]; rate 0.0630 kg/ha): 7.0 | Preemergence herbicidal rating TRZAWR ([7]; rate 0.0156 kg/ha): 0.0 | Preemergence herbicidal rating TRZAWR ([7]; rate 0.0313 kg/ha): 0.0 | Preemergence herbicidal rating TRZAWR ([7]; rate 0.0625 kg/ha): 0.0 | Preemergence herbicidal rating TRZAWR ([7]; rate 0.1250 kg/ha): 0.0 | Preemergence herbicidal rating TRZAWR ([7]; rate 0.2500 kg/ha): 1.0 | Herbicidal rating ABUTH (ABUTH (Velvetleaf); rate 0.0158 kg/ha): 9.0 | Herbicidal rating ABUTH (ABUTH (Velvetleaf); rate 0.0315 kg/ha): 9.0 | Herbicidal rating ABUTH (ABUTH (Velvetleaf); rate 0.0630 kg/ha): 9.0 | herbicidal effect rating, CYPSE (CYPSE (Flatsedge); 0.0313 kg/ha): 6.0 | herbicidal effect rating, CYPSE (CYPSE (Flatsedge); 0.0625 kg/ha): 6.0 | CYPSE herbicidal effect rating (CYPSE (Flatsedge); 0.1250 kg/ha): 7.0 | CYPSE herbicidal effect rating (CYPSE (Flatsedge); 0.2500 kg/ha): 8.0 | Preemergence herbicidal rating IPOHE ([8]; rate 0.0156 kg/ha): 0.0 | Preemergence herbicidal rating IPOHE ([8]; rate 0.0313 kg/ha): 0.0 | Preemergence herbicidal rating IPOHE ([8]; rate 0.0625 kg/ha): 0.0 | Preemergence herbicidal rating IPOHE ([8]; rate 0.1250 kg/ha): 1.0 | Preemergence herbicidal rating IPOHE ([8]; rate 0.2500 kg/ha): 3.0 | Preemergence herbicidal rating SETVI (SETVI (Foxtail, Green); rate 0.0156 kg/ha): 0.0 | Preemergence herbicidal rating SETVI (SETVI (Foxtail, Green); rate 0.0313 kg/ha): 0.0 | Preemergence herbicidal rating SETVI (SETVI (Foxtail, Green); rate 0.0625 kg/ha): 0.0 | Preemergence herbicidal rating SETVI (SETVI (Foxtail, Green); rate 0.1250 kg/ha): 0.0 | Preemergence herbicidal rating SETVI (SETVI (Foxtail, Green); rate 0.2500 kg/ha): 3.0 | Preemergence herbicidal rating CHEAL ([9]; rate 0.0156 kg/ha): 9.0 | Preemergence herbicidal rating CHEAL ([9]; rate 0.0313 kg/ha): 9.0 | Preemergence herbicidal rating CHEAL ([9]; rate 0.0625 kg/ha): 4.0 | Preemergence herbicidal rating CHEAL ([9]; rate 0.1250 kg/ha): 7.0 | Preemergence herbicidal rating CHEAL ([9]; rate 0.2500 kg/ha): 9.0 | Preemergence herbicidal rating AMBEL (AMBEL (Ragweed, Common) [10]; rate 0.0156 kg/ha): 0.0 | Preemergence herbicidal rating AMBEL (AMBEL (Ragweed, Common) [10]; rate 0.0313 kg/ha): 0.0 | Preemergence herbicidal rating AMBEL (AMBEL (Ragweed, Common) [10]; rate 0.0625 kg/ha): 2.0 | Preemergence herbicidal rating AMBEL (AMBEL (Ragweed, Common) [10]; rate 0.1250 kg/ha): 2.0 | Preemergence herbicidal rating AMBEL (AMBEL (Ragweed, Common) [10]; rate 0.2500 kg/ha): 1.0
